Measurements reported in patent US12435044B2, “Pyridazinone herbicides and pyridazinone intermediates used to prepare a herbicide” (FMC Corporation, priority 2018, dated 2025).

Legend:
Test in all cases: Test G preemergence, mixtures of Cpd. No. 20 with (b15C1)
Format in all cases: in vivo
[1] = system: giant foxtail (SETFA; Setaria faberi)
From the text: (§1) This test evaluated the effect of mixtures of Cpd. No. 20 with (b15C1) on several plant species. Seeds of plant species selected from corn (ZEAMD; Zea mays, cv. ‘Pioneer 1184’), soybean (GLXMA; Glycine max, cv. Pioneer 35T58), giant foxtail (SETFA; Setaria faberi), barnyardgrass (ECHCG; Echinochloa crus-galli), large crabgrass (DIGSA; Digitaria sanguinalis), palmer amaranth (AMAPA; Amaranthus palmeri), common waterhemp (AMATU; Amaranthus rudis), and common ragweed (AMBEL; Ambrosia artemisiifolia) were planted in pots containing Tama Silt Loam soil and treated preemergence with a directed soil spray using test chemicals formulated in a non-phytotoxic solvent mixture which included a surfactant.
(§2) Treated plants and untreated controls were maintained in a greenhouse for approximately 21 d, after which time all treated plants were compared to untreated controls and visually evaluated for injury. Plant response ratings, summarized in Table G, are based on a 0 to 100 scale where 0 is no effect and 100 is complete control. A dash (-) response means no test result. Test results are presented as a mean of 4 reps.

[2] = system: soybean (GLXMA; Glycine max, cv. Pioneer 35T58)
From the text: as §1, §2

[3] = system: barnyardgrass (ECHCG; Echinochloa crus-galli)
From the text: as §1, §2

[4] = system: palmer amaranth (AMAPA; Amaranthus palmeri)
From the text: as §1, §2

[5] = system: common ragweed (AMBEL; Ambrosia artemisiifolia)
From the text: as §1, §2

[6] = system: common waterhemp (AMATU; Amaranthus rudis)
From the text: as §1, §2

[7] = system: large crabgrass (DIGSA; Digitaria sanguinalis)
From the text: as §1, §2

[8] = system: corn (ZEAMD; Zea mays, cv. ‘Pioneer 1184’)
From the text: as §1, §2

FC(F)c1cc(-c2c(Cl)cccc2Oc2ncc(Cl)cn2)on1 [(b15C1), 5-chloro-2-[3-chloro-2-[3-(difluoromethyl)-5-isoxazolyl]phenoxy]-pyrimidine, reference compound]
Plant response rating (0 to 100 scale) ([1]; (b15C1) 8 g a.i./ha alone): 5
Plant response rating (0 to 100 scale) ([1]; (b15C1) 16 g a.i./ha alone): 34
Plant response rating (0 to 100 scale) ([1]; (b15C1) 31 g a.i./ha alone): 74
Plant response rating (0 to 100 scale) ([2]; (b15C1) 8 g a.i./ha alone): 0
Plant response rating (0 to 100 scale) ([2]; (b15C1) 16 g a.i./ha alone): 0
Plant response rating (0 to 100 scale) ([2]; (b15C1) 31 g a.i./ha alone): 0
Plant response rating (0 to 100 scale) ([3]; (b15C1) 8 g a.i./ha alone): 0
Plant response rating (0 to 100 scale) ([3]; (b15C1) 16 g a.i./ha alone): 0
Plant response rating (0 to 100 scale) ([3]; (b15C1) 31 g a.i./ha alone): 35
Plant response rating (0 to 100 scale) ([4]; (b15C1) 8 g a.i./ha alone): 60
Plant response rating (0 to 100 scale) ([4]; (b15C1) 16 g a.i./ha alone): 88
Plant response rating (0 to 100 scale) ([4]; (b15C1) 31 g a.i./ha alone): 97
Plant response rating (0 to 100 scale) ([5]; (b15C1) 8 g a.i./ha alone): 54
Plant response rating (0 to 100 scale) ([5]; (b15C1) 16 g a.i./ha alone): 90
Plant response rating (0 to 100 scale) ([5]; (b15C1) 31 g a.i./ha alone): 100
Plant response rating (0 to 100 scale) ([6]; (b15C1) 8 g a.i./ha alone): 0
Plant response rating (0 to 100 scale) ([6]; (b15C1) 16 g a.i./ha alone): 0
Plant response rating (0 to 100 scale) ([6]; (b15C1) 31 g a.i./ha alone): 20
Plant response rating (0 to 100 scale) ([7]; (b15C1) 8 g a.i./ha alone): 54
Plant response rating (0 to 100 scale) ([7]; (b15C1) 16 g a.i./ha alone): 90
Plant response rating (0 to 100 scale) ([7]; (b15C1) 31 g a.i./ha alone): 100
Plant response rating (0 to 100 scale) ([8]; (b15C1) 8 g a.i./ha alone): 0
Plant response rating (0 to 100 scale) ([8]; (b15C1) 16 g a.i./ha alone): 0
Plant response rating (0 to 100 scale) ([8]; (b15C1) 31 g a.i./ha alone): 0
